The values below come from patent publication US6569858B2, “12,13-(pyranosyl)-indolo[2,3-a]pyrrolo[3,4-c]carbazole and 12,13-(pyranosyl)-furo[3,4-c]indolo[2,3-a]carbazoles” (Les Laboratoires Servier, priority 1999, dated 2003).

The test system of this data set is murine leukaemia L1210. Put plainly: Murine leukaemia L1210 in vitro cytotoxicity (Microculture Tetrazolium Assay). Particulars: L1210, exposure 48 hours (four doubling periods); read-out: IC50, the cytotoxic concentration that inhibits proliferation of treated cells by 50%. In kind it is cell-based. Here is the method:
The murine leukaemia L1210 was used in vitro. The cells are cultured in complete RPMI 1640 culture medium comprising 10% foetal calf serum, 2 mM glutamine, 50 units/ml of penicillin, 50 μg/ml of streptomycin and 10 mM Hepes, pH 7.4. The cells are distributed on microplates and are exposed to the cytotoxic compounds for four doubling periods, that is to say 48 hours. The number of viable cells is then quantified by a colorimetric assay, the Microculture Tetrazolium Assay (J. Carmichael et al., Cancer Res., 47, 936-942, (1987)). The results are expressed as IC50, the cytotoxic concentration that inhibits proliferation of treated cells by 50%.

In the case of `COC1C(CO)OC2C(C1O)n1c3ccc(Br)cc3c3c4c(c5c6cc(Br)ccc6n2c5c31)C(=O)NC4=O` [Example 19, 3,9-Dibromo-12,13-[1,2-(4—O-methyl-β-D-mannopyranosyl)]-6,7,12,13-tetrahydro-(5H)-indolo[2,3-a]pyrrolo[3,4-c]carbazole-5,7-dione], the IC50 turned out to be 140 nM. In the case of `COC1C(CO)OC2C(C1O)n1c3ccc([N+](=O)[O-])cc3c3c4c(c5c6cc([N+](=O)[O-])ccc6n2c5c31)C(=O)NC4=O` [Example 13, 3,9-Dinitro-12,13-[1,2-(4—O-methyl-β-D-mannopyranosyl)]-6,7,12,13-tetrahydro-(5,H)-indolo[2,3-a]pyrrolo[3,4-c]carbazole-5,7-dione] it was 130 nM.
